Three compounds from article PMC6487070, “Molecular transport through primary human small intestinal monolayers by culture on a collagen scaffold with a gradient of chemical cross-linking” (Journal of Biological Engineering, 2019) can be followed below.

Assay type in all cases: in vitro ADME
Data set [1] deals with P-gp. Description: Bidirectional transport of digoxin across monolayers with and without zosuquidar. To be noted: human, n = 3, read-out: efflux ratio Papp(B-L)/Papp(L-B). How it is done:
(§1) All transport assays were performed by adding LY ([…]) and the drug to the luminal or basal reservoirs of the monolayer (n = 3). Samples were collected after 3 h. LY was added to ensure that monolayer integrity remained intact throughout the assay. Additionally, TEER was measured before and after the assay to further verify that monolayer integrity remained constant throughout the assay. Monolayers with a TEER > 90 Ω cm^2 or 300 Ω cm^2 were used for the gradient cross-linked scaffold and conventional scaffold, respectively. […] Zosuquidar and Ko143 were added to inhibit digoxin transport and prazosin transport, respectively, 2.5 h after addition of the substrate. Samples were collected 30 min after inhibitor addition for a totally assay time of 3 h.
The concentration of the drug in the collected sample was determined using HPLC-triple quadrupole mass spectrometry (LC-MS/MS, PE Sciex API 3000, AB Sciex) with multiple reaction monitoring (MRM). A C-18 analytical column with a linear gradient from 100% water with 1% formic acid to 80% acetonitrile with 1% formic acid over 8 min (0.3 mL/min) was used for the separation. […] Digitoxin was used as an internal standard for digoxin samples. Doxasozin was used an internal standard for prazosin samples. All internal standards were added to samples just prior to LC-MS/MS analysis. […] Sample concentrations were quantified using the standard curve and normalized to the signal of the appropriate internal standard. The drug apparent permeability was calculated according to the following equation: Papp = (V/(A x Ci)) x (Cf/T) where V is the volume of the basal chamber (mL), A is the area of epithelial layer (cm^2), Ci is the initial concentration of the molecule (nM), Cf is the final concentration of the drug, and T is the assay time (s). The average Papp with a single standard deviation is shown (average ± SD). The efflux ratio was calculated according to the following equation: Efflux Ratio = Papp(B-L)/Papp(L-B).

Data set [2] deals with T1, BCRP (Homo sapiens, UniProt Q9UNQ0).
T1 construct: endogenous in cells; host or cells: primary human small intestinal epithelial cell monolayers on a gradient cross-linked or conventional collagen scaffold
T1 sequence (Q9UNQ0 1-655): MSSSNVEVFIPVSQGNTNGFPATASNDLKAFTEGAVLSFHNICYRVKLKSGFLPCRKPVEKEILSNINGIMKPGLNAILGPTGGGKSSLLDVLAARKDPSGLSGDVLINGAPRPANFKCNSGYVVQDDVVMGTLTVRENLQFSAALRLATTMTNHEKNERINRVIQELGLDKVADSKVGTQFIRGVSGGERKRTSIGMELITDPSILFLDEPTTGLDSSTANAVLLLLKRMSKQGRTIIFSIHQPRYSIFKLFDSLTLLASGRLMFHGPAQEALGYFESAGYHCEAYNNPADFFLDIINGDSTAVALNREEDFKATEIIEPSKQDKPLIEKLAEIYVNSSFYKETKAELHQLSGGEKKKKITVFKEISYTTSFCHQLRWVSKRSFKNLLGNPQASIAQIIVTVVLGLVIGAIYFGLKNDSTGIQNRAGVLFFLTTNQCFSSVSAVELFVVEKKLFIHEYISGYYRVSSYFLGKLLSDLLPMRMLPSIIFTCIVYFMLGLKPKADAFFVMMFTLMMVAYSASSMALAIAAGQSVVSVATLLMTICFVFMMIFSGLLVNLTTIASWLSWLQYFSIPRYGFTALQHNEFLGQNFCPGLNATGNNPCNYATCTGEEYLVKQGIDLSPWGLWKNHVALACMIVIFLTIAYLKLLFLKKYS
The data set is described as follows: Bidirectional transport of prazosin across monolayers with and without Ko143. As to conditions: gradient cross-linked scaffold. How it is done: as §1, with “Samples were collected 30 min after inhibitor addition for a totally assay time of 3 h.” left out
The concentration of the drug in the collected sample was determined using HPLC-triple quadrupole mass spectrometry (LC-MS/MS, PE Sciex API 3000, AB Sciex) with multiple reaction monitoring (MRM). […] Sample concentrations were quantified using the standard curve and normalized to the signal of the appropriate internal standard. The drug apparent permeability was calculated according to the following equation: Papp = (V/(A x Ci)) x (Cf/T) where V is the volume of the basal chamber (mL), A is the area of epithelial layer (cm^2), Ci is the initial concentration of the molecule (nM), Cf is the final concentration of the drug, and T is the assay time (s). […]

Data set [3] relates to primary human small intestinal epithelial monolayers. Description: Monolayer integrity: permeability of LY and fluorescein-dextran through small intestinal epithelial monolayers. As to conditions: monolayers on gradient cross-linked scaffold and on conventional scaffold; luminal to basal, 3 h; n = 3. How it is done: Neither LY nor fluorescein-dextran are transported by the intestinal epithelium. The TEER was measured using an EVOM^2 epithelial Volt/Ohm meter (World Precision Instruments, Sarasota, FL). The raw resistance measurements of the monolayers were subtracted from that of the average resistance (n = 3) of the collagen layer without cells and normalized by multiplying the cell culture area of the well to provide a TEER in units of Ω cm^2 [48]. The average TEER (n = 3) with a single standard deviation (SD) is shown (average ± SD). […] The amount of LY (ex: 428 nm, em: 520 nm) and fluorescein-dextran (ex: 490 nm, em: 520 nm) in the basal side was determined by measuring their fluorescence in a microplate reader (Spectramax M5, Molecular Devices Corporation, San Jose, CA). The luminal-to-basal apparent permeability (Papp) were calculated according to the following equation: […] The average Papp with a single standard deviation is shown (average ± SD).

Read-outs that look alike come from different tables or passages of the source.

Consider `C[C@H]1O[C@@H](O[C@H]2[C@@H](O)C[C@H](O[C@H]3[C@@H](O)C[C@H](O[C@H]4CC[C@@]5(C)[C@H](CC[C@@H]6[C@@H]5C[C@@H](O)[C@]5(C)[C@@H](C7=CC(=O)OC7)CC[C@]65O)C4)O[C@@H]3C)O[C@@H]2C)C[C@H](O)[C@@H]1O` [digoxin], for which the efflux ratio at 3 h in data set [1] (conventional scaffold, no inhibitor) worked out at 2.3; in data set [1] (gradient cross-linked scaffold, no inhibitor) it was 2.7; in data set [1] (with zosuquidar (concentration not stated), conventional scaffold, in the presence of P-gp inhibitor zosuquidar), 1.4; in data set [1] (with zosuquidar (concentration not stated), gradient cross-linked scaffold, in the presence of P-gp inhibitor zosuquidar), 1.4.
`COc1cc2nc(N3CCN(C(=O)c4ccco4)CC3)nc(N)c2cc1OC` [prazosin]: the efflux ratio at 3 h in data set [2] (no inhibitor, read-out: efflux ratio Papp(B-L)/Papp(L-B)) came to 6.5; in data set [2] (with Ko143 (concentration not stated), with BCRP inhibitor Ko143, read-out: efflux ratio Papp(B-L)/Papp(L-B)) it was 1.7.
For the compound Lucifer yellow [LY], the “permeability through confluent, differentiated monolayers” value in data set [3] is “low”.
